Tests used:
[1] = system: C. neoformans growth versus IL-2 in murine T cells; assay: Therapeutic index score (immunosuppressive fold change to antifungal fold change relative to FK506); set-up: species or system Cryptococcus neoformans; mouse; conditions: for Therapeutic Index Score: FK506 = 1.0
Method in brief: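 TIscore = ratio of immunosuppressive fold change (IL-2, murine T cells) to antifungal fold change (C. neoformans), both relative to FK506; values >1.0 denote greater fungal specificity. Derived from in vitro fungal versus mammalian calcineurin inhibition data.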

[2] = molecular target: T1, C. albicans FKBP12 and CnA-CnB-calmodulin complex (UniProt C4YFI3+C4YS24+P28870); assay: Biolayer interferometry ternary complex formation; type: binding, Candida albicans; conditions: BLI, 10 μM compound, steady-state and kinetic analyses
T1 construct: N-tagged CnA 54-609, untagged CnB and calmodulin co-expressed in Tni insect cells
T1 sequence (P28870 whole entry): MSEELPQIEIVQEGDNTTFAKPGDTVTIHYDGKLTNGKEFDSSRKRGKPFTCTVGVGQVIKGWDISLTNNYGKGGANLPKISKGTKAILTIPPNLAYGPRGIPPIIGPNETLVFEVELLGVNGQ
T1 sequence (C4YFI3 54-609): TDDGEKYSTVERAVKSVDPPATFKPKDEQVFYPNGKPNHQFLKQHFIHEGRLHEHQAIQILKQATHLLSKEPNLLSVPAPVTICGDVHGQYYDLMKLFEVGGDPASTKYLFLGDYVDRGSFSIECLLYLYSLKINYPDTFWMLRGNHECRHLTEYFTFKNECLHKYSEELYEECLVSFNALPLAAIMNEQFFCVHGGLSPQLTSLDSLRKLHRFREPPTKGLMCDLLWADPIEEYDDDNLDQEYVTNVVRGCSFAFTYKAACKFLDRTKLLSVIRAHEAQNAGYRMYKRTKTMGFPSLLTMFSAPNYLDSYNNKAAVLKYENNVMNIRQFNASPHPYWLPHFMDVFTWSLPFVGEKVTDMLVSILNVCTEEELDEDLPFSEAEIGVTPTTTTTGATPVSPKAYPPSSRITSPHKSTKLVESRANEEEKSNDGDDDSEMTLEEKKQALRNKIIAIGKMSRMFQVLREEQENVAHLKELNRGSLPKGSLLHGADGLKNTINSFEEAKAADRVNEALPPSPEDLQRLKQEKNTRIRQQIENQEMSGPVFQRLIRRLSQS
T1 sequence (C4YS24 1-173): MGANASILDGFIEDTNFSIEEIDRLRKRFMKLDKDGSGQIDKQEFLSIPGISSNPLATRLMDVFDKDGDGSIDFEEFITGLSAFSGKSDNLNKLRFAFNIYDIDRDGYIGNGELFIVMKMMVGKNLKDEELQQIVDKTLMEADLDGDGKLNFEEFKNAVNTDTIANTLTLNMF
T1 sequence (P23286 whole entry partner): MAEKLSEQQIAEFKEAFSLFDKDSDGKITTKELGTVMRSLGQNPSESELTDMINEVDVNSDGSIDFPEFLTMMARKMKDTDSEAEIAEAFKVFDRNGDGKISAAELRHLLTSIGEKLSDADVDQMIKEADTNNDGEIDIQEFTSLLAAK
Method: To better understand the relationship between structure and activity of these analogs, FK506 analog, JH-FK-02 was tested, and one FK520 analog, JH-FK-05 was tested, for their binding dynamics to CnA and CnB by biolayer interferometry (BLI). Purified and biotinylated (Avi-tagged) FKBP12 from A. fumigatus and C. albicans were loaded onto streptavidin sensors in the presence of an inhibitor, followed by titration of the respective CnA-CnB-calmodulin complex, also in the presence of an inhibitor. Data were double referenced using parallel reference sensors and sample blanks.
Biolayer interferometry (BLI) experiments were completed using either A. fumigatus or C. albicans FKBP12 and CnA/CnB/calmodulin complexes, along with compounds FK506, APX879, FK520, JH-FK-02, and JH-FK-05. Initial buffer (25 mM Tris, 200 mM NaCl, and 1 mM TCEP [pH 8.0]) was prepared using 1 M Tris-HCl (pH 8.0, catalog no. T1080; Teknova), 5 M sodium chloride (catalog no. S0251; Teknova), TCEP (catalog no. M115; Soltec Ventures, Inc.), and was readjusted to pH 8 before sterile filtering. […]
Data were processed and analyzed using ForteBio Data Analysis software version 11.1.3.10. […] Kinetics data were analyzed using the “association and dissociation curve fitting” option utilizing a 1:1 model. […]

SMILES | Therapeutic index ([1]; Example 3, C. neoformans H99, FK506 = 1.0) | Therapeutic Index Score ([1]; Table 12, Example 4) | Therapeutic Index Score ([1]; Table 13, Example 4) | affinity of target complex formation in presence of analog [2] | therapeutic index score (TIscore) ([1]; Example 1, C. neoformans MIC and IL-2 IC50, FK506 = 1.0)
C=CCC1C=C(C)CC(C)CC(OC)C2OC(O)(C(=O)C(=O)N3CCCCC3C(=O)OC(C(C)=CC3CCC(O)C(OC)C3)C(C)C(O)CC1=O)C(C)CC2OC (stereo not drawn) [FK506, reference compound] | 1.0 | 1.0 | 1.0 | – | –
C=CC[C@@H]1/C=C(\C)C[C@H](C)C[C@H](OC)[C@H]2O[C@@](O)(C(=O)C(=O)N3CCCC[C@H]3C(=O)O[C@H](/C(C)=C/[C@@H]3CC[C@@H](O)[C@H](OC)C3)[C@H](C)[C@@H](O)C/C1=N/NC(=O)CC)[C@H](C)C[C@@H]2OC [JH-FK-02] | – | – | – | affinities similar to those of the parent compounds | 9.7
CC[C@@H]1/C=C(\C)C[C@H](C)C[C@H](OC)[C@H]2O[C@@](O)(C(=O)C(=O)N3CCCC[C@H]3C(=O)O[C@H](/C(C)=C/[C@@H]3CC[C@@H](O)[C@H](OC)C3)[C@H](C)[C@@H](O)C/C1=N/NC(C)=O)[C@H](C)C[C@@H]2OC [JH-FK-05] | – | – | – | affinities similar to those of the parent compounds | –

From US20260315446A1, “ANTIFUNGAL COMPOUNDS AND USES THEREOF” (priority 2023, published 2026)
